Data published in publication PMC4207896, “Cytotoxic Benzophenanthridine and Furoquinoline Alkaloids from Zanthoxylum buesgenii (Rutaceae)” (Chemistry Central Journal, 2014).
Like-named read-outs stand apart in the source and are kept apart here.

Tests used:
Type in all cases: cell-based
[1] = test system: HepG2 hepatocarcinoma cells; test: Resazurin reduction cytotoxicity assay, HepG2; conditions: Homo sapiens, read-out: IC50 values
Experimental: (§1) The resazurin reduction assay was performed to assess the cytotoxicity of compounds and doxorubicin as control drug towards various sensitive and drug-resistant cancer cell lines, including the CCRF-CEM and CEM/ADR5000 leukemia, MDA-MB231 breast cancer cells and its resistant subline MDA-MB231/BCRP, HCT116p53^+/+ colon cancer cells and its resistant subline HCT116p53^−/−, U87MG glioblastoma cells and its resistant subline U87MG. ΔEGFR and HepG2 hepatocarcinoma cells and normal AML12 hepatocytes. The assay is based on the reduction of the indicator dye, resazurin, to the highly fluorescent resorufin by viable cells. […] Briefly, adherent cells were detached by treatment with 0.25% trypsin/EDTA (Invitrogen, Darmstadt Germany) and an aliquot of 1 × 10^4 cells was placed in each well of a 96-well cell culture plate (Thermo Scientific, Langenselbold, Germany) in a total volume of 200 μL. Cells were allowed to attach overnight and then were treated with different concentrations of compounds. For suspension cells, aliquots of 2 × 10^4 cells per well were seeded in 96-well-plates in a total volume of 100 μL. The studied compounds were immediately added in varying concentrations in an additional 100 μL of culture medium to obtain a total volume of 200 μL/well. After 72 h, resazurin (Sigma-Aldrich, Schnelldorf, Germany) (20 μL, 0.01% w/v) in distilled H2O was added to each well and the plates were incubated at 37°C for 4 h. Fluorescence was measured on an Infinite M2000 ProTM plate reader (Tecan, Crailsheim, Germany) using an excitation wavelength of 544 nm and an emission wavelength of 590 nm. Each assay was done at least twice with six replicates each. The viability was evaluated based on a comparison with untreated cells. IC50 values represent the compound concentrations required to inhibit 50% of cell proliferation and were calculated from a calibration curve by linear regression using Microsoft Excel.

[2] = test system: CEM/ADR5000 leukemia cells; test: Resazurin reduction cytotoxicity assay, CEM/ADR5000; conditions: Homo sapiens, read-out: IC50 values
Experimental: as §1

[3] = test system: HCT116 (p53-/-) colon cancer cells; test: Resazurin reduction cytotoxicity assay, HCT116 (p53-/-); conditions: Homo sapiens, read-out: IC50 values
Experimental: as §1

[4] = test system: CCRF-CEM leukemia cells; test: Resazurin reduction cytotoxicity assay, CCRF-CEM; conditions: Homo sapiens, 72 h, read-out: IC50 values
Experimental: as §1

[5] = test system: normal AML12 hepatocytes; test: Resazurin reduction cytotoxicity assay, normal AML12 hepatocytes; conditions: Mus musculus, read-out: IC50 values
Experimental: as §1

[6] = test system: HCT116 (p53+/+) colon cancer cells; test: Resazurin reduction cytotoxicity assay, HCT116 (p53+/+); conditions: Homo sapiens, read-out: IC50 values
Experimental: as §1

[7] = test system: MDA-MB231 breast cancer cells; test: Resazurin reduction cytotoxicity assay, MDA-MB231; conditions: Homo sapiens, read-out: IC50 values
Experimental: as §1

[8] = test system: MDA-MB231/BCRP cells; test: Resazurin reduction cytotoxicity assay, MDA-MB231/BCRP; conditions: MDA-MB-231/BCRP, 72 h, read-out: IC50 values
Experimental: as §1

[9] = test system: U87MG. ΔEGFR cells; test: Resazurin reduction cytotoxicity assay, U87MG.ΔEGFR; conditions: Homo sapiens, U-87 MG, 72 h, read-out: IC50 values
Experimental: as §1

[10] = test system: U87MG glioblastoma cells; test: Resazurin reduction cytotoxicity assay, U87MG; conditions: Homo sapiens, U-87 MG, 72 h, read-out: IC50 values
Experimental: as §1

[11] = test system: nine tested cancer cell lines; test: Resazurin reduction cytotoxicity assay, panel of nine cancer cell lines; conditions: all nine cancer cell lines, 72 h, read-out: IC50 values towards all the nine tested cancer cell lines
Experimental: as §1, with “The studied compounds were immediately added in varying concentrations in an additional 100 μL of culture medium to obtain a total volume of 200 μL/well. After 72 h, resazurin (Sigma-Aldrich, Schnelldorf, Germany) (20 μL, 0.01% w/v) in distilled H2O was added to each well and the plates were incubated at 37°C for 4 h.” left out, “Each assay was done at least twice with six replicates each.” left out, “IC50 values represent the compound concentrations required to inhibit 50% of cell proliferation and were calculated from a calibration curve by linear regression using Microsoft Excel.” left out

[12] = HepG2 hepatocarcinoma cells, resazurin assay, 72 h
[13] = CEM/ADR5000 leukemia (resistant), resazurin assay, 72 h
[14] = CCRF-CEM leukemia (sensitive), resazurin assay
[15] = normal AML12 hepatocytes, resazurin assay, 72 h
[16] = MDA-MB-231, MDA-MB231 breast cancer cells, resazurin assay, 72 h
[17] = MDA-MB231/BCRP resistant subline, resazurin assay
[18] = U87MG. ΔEGFR resistant subline, resazurin assay
[19] = U87MG glioblastoma cells, resazurin assay

COc1c2cc3c(cc2nc2occc12)OCO3 [Compound 3, maculine]
IC50 ([1]; HepG2, 72 h): > 165 µM
IC50 ([2]; ADR5000, 72 h): 63.1 ± 3.75 µM
IC50 ([3]; HCT-116, 72 h): > 165 µM
IC50 ([4]; CCRF-CEM): 89.1 ± 6.22 µM
IC50 ([5]; AML12, 72 h): > 165 µM
IC50 ([6]; HCT-116, 72 h): > 165 µM
IC50 ([7]; MDA-MB-231, 72 h): > 165 µM
IC50 [8]: > 165 µM
IC50 [9]: > 165 µM
IC50 [10]: > 165 µM

COc1c(O)ccc2c1c[n+](C)c1c3cc4c(cc3ccc21)OCO4 [Compound 2, isofagaridine]
IC50 ([1]; HepG2, 72 h): 26.7 ± 3.15 µM
IC50 ([2]; ADR5000, 72 h): 20.4 ± 2.16 µM
IC50 ([3]; HCT-116, 72 h): > 120 µM
IC50 ([4]; CCRF-CEM): 0.3 ± 0.04 µM
IC50 ([5]; AML12, 72 h): > 120 µM
IC50 ([6]; HCT-116, 72 h): 87.1 ± 7.55 µM
IC50 ([7]; MDA-MB-231, 72 h): 41.4 ± 3.44 µM
IC50 [8]: 114 ± 9.82 µM
IC50 [9]: 115 ± 13.8 µM
IC50 [10]: 105 ± 9.16 µM

COc1c(O)ccc2c1C(O)N(C)c1c-2ccc2cc3c(cc12)OCO3 (stereo not drawn) [Compound 1, 1-methoxy-12-methyl-12,13-dihydro-[1,3]dioxolo[4′,5′:4,5]benzo[1,2-c]phenanthridine-2,13-diol]
IC50 [1, 12]: 22.4 ± 1.97 µM
IC50 [2, 13]: 31.6 ± 3.48 µM
IC50 ([3]; HCT-116, HCT116 (p53-/-) resistant subline, resazurin assay, 72 h): 62.3 ± 4.41 µM
IC50 [4, 14]: 0.24 ± 0.01 µM
IC50 [5, 15]: > 107 µM
IC50 [11]: ≤ 65 µM
IC50 ([6]; HCT-116, HCT116 (p53+/+) colon cancer cells, resazurin assay, 72 h): 42.5 ± 3.22 µM
IC50 [7, 16]: 30.1 ± 4.12 µM
IC50 [8, 17]: 65 ± 5.37 µM
IC50 [9, 18]: 61.8 ± 4.68 µM
IC50 [10, 19]: 60.6 ± 7.29 µM

COc1cc2nc3occc3c(OC)c2cc1OC [Compound 4, kokusaginine]
IC50 ([1]; HepG2, 72 h): 90.8 ± 8.86 µM
IC50 ([2]; ADR5000, 72 h): 44.6 ± 3.92 µM
IC50 ([3]; HCT-116, 72 h): > 154 µM
IC50 ([4]; CCRF-CEM): 49.8 ± 5.04 µM
IC50 ([5]; AML12, 72 h): > 154 µM
IC50 ([6]; HCT-116, 72 h): 120 ± 13.1 µM
IC50 ([7]; MDA-MB-231, 72 h): 62 ± 7.24 µM
IC50 [8]: > 154 µM
IC50 [9]: > 154 µM
IC50 [10]: 70.1 ± 6.4 µM

COc1cccc2c1C(=O)c1c(O)c3c(c(O)c1C2=O)C[C@@](O)(C(=O)CO)C[C@@H]3O[C@H]1C[C@H](N)[C@H](O)[C@H](C)O1 [Doxorubicin, doxorubicin, reference compound]
IC50 [1, 12]: 3.83 ± 0.94 µM
IC50 [2, 13]: 195 ± 14.3 µM
IC50 ([3]; HCT-116, 72 h): 4.06 ± 0.07 µM
IC50 [4, 14]: 0.2 ± 0.06 µM
IC50 [5, 15]: > 73.6 µM
IC50 ([6]; HCT-116, 72 h): 1.41 ± 0.29 µM
IC50 [7, 16]: 1.1 ± 0.28 µM
IC50 [8, 17]: 7.83 ± 0.47 µM
IC50 [9, 18]: 6.11 ± 0.57 µM
IC50 [10, 19]: 1.06 ± 0.15 µM
